Source: patent US10239883B2, “4-imidazopyridazin-1-yl-benzamides as BTK inhibitors” (Merck Sharp & Dohme B.V., priority 2011, dated 2019)

target: Btk enzyme (His-Btk) (Homo sapiens (Human), UniProt Q06187); test: Btk enzyme activity, IMAP fluorescence polarization assay; details: 60 min pre-incubation, 5 μM ATP, bin bound in nM
Sequence (Q06187 whole entry): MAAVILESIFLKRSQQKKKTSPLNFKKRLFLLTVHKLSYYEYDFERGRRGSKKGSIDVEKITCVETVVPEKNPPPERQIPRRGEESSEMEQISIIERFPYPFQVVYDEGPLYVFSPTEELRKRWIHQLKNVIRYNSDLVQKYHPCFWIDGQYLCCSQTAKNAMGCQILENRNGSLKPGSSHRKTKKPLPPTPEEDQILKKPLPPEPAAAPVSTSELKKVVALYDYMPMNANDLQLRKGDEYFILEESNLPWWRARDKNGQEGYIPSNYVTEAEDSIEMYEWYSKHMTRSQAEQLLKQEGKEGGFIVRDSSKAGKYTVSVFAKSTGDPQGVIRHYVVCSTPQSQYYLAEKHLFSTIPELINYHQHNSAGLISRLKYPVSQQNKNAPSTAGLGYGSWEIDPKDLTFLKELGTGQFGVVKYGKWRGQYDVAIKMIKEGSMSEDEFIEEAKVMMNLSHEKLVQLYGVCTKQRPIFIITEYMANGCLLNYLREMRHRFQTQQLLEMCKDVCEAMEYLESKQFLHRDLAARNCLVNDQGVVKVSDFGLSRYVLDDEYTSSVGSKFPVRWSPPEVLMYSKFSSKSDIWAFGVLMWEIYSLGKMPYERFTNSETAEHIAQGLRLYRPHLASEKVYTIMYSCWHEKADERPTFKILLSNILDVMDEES

Structure (SMILES)	EC50 Btk activity values [nM]
CC#CC(=O)N1CCCC[C@H]1c1nc(-c2ccc(C(=O)Nc3nccc(C)n3)cc2)c2c(N)nccn12 [Example 89, (S)-4-(8-amino-3-(1-but-2-ynoylpiperidin-2-yl)imidazo[1,5-a]pyrazin-1-yl)-N-(4-methylpyrimidin-2-yl)benzamide]	<100
CC#CC(=O)N1CCC[C@H]1c1nc(-c2ccc(C(=O)Nc3ccccn3)c(F)c2)c2c(N)nccn12 [Example 50, (S)-4-(8-amino-3-(1-but-2-ynoylpyrrolidin-2-yl)imidazo[1,5-a]pyrazin-1-yl)-2-fluoro-N-(pyridin-2-yl)benzamide]	<100
Cc1cc(C(=O)Nc2ccccn2)ccc1-c1nc([C@@H]2CCCCN2C(=O)c2ccnc(Cl)n2)n2ccnc(N)c12 [Example 56, 4-(8-amino-3-((S)-1-(2-chloropyrimidine-4-carbonyl)piperidin-2-yl)imidazo[1,5-a]pyrazin-1-yl)-3-methyl-N-(pyridin-2-yl)benzamide]	<100
COC/C=C/C(=O)N1CCCCCC1c1nc(-c2ccc(C(=O)Nc3ccccn3)cc2)c2c(N)nccn12 (stereo not drawn) [Example 97, (E)-4-(8-amino-3-(1-(4-methoxybut-2-enoyl)azepan-2-yl)imidazo[1,5-a]pyrazin-1-yl)-N-(pyridin-2-yl)benzamide]	<100
COC/C=C/C(=O)N1CCC[C@H]1c1nc(-c2ccc(C(=O)Nc3cc(C#N)ccn3)cc2)c2c(N)nccn12 [Example 98, (S,E)-4-(8-amino-3-(1-(4-methoxybut-2-enoyl)pyrrolidin-2-yl)imidazo[1,5-a]pyrazin-1-yl)-N-(4-cyanopyridin-2-yl)benzamide]	<100
Nc1nccn2c([C@@H]3CCCN3C(=O)c3ccnc(Cl)n3)nc(-c3ccc(C(=O)Nc4ccccn4)c(F)c3)c12 [Example 84, (S)-4-(8-amino-3-(1-(2-chloropyrimidine-4-carbonyl)pyrrolidin-2-yl)imidazo[1,5-a]pyrazin-1-yl)-2-fluoro-N-(pyridin-2-yl)benzamide]	<100
COC/C=C/C(=O)N1CCCC[C@H]1c1nc(-c2ccc(C(=O)Nc3cc(F)ccn3)cc2)c2c(N)nccn12 [Example 81, (S,E)-4-(8-amino-3-(1-(4-methoxybut-2-enoyl)piperidin-2-yl)imidazo[1,5-a]pyrazin-1-yl)-N-(4-fluoropyridin-2-yl)benzamide]	<100
CCCc1ccnc(NC(=O)c2ccc(-c3nc([C@@H]4CCCCN4C(=O)/C=C/COC)n4ccnc(N)c34)cc2F)c1 [Example 114, (S,E)-4-(8-amino-3-(1-(4-methoxybut-2-enoyl)piperidin-2-yl)imidazo[1,5-a]pyrazin-1-yl)-2-fluoro-N-(4-propylpyridin-2-yl)benzamide]	<100
COC/C=C/C(=O)N1CCC[C@H]1c1nc(-c2ccc(C(=O)Nc3ccccn3)cc2)c2c(N)nccn12 [Example 4, (S,E)-4-(8-amino-3-(1-(4-methoxybut-2-enoyl)pyrrolidin-2-yl)imidazo[1,5-a]pyrazin-1-yl)-N-(pyridin-2-yl)benzamide]	<100
Cc1ccnc(NC(=O)c2ccc(-c3nc([C@@H]4CCCN4C(=O)/C=C/CN(C)C)n4ccnc(N)c34)cc2)c1 [Example 59, (S,E)-4-(8-amino-3-(1-(4-(dimethylamino)but-2-enoyl)pyrrolidin-2-yl)imidazo[1,5-a]pyrazin-1-yl)-N-(4-methylpyridin-2-yl)benzamide]	<100
COC/C=C/C(=O)N1CCC[C@H]1c1nc(-c2ccc(C(=O)Nc3cc(C)ccn3)cc2)c2c(N)nccn12 [Example 57, (S,E)-4-(8-amino-3-(1-(4-methoxybut-2-enoyl)pyrrolidin-2-yl)imidazo[1,5-a]pyrazin-1-yl)-N-(4-methylpyridin-2-yl)benzamide]	<100
Nc1nccn2c([C@@H]3CCCN3C(=O)c3ccnc(Cl)n3)nc(-c3ccc(C(=O)Nc4ccccn4)cc3)c12 [Example 5, (S)-4-(8-amino-3-(1-(2-chloropyrimidine-4-carbonyl)pyrrolidin-2-yl)imidazo[1,5-a]pyrazin-1-yl)-N-(pyridin-2-yl)benzamide]	<100
Nc1nccn2c([C@@H]3CCCN3C(=O)c3ccnc(Cl)n3)nc(-c3ccc(C(=O)Nc4cc(C(F)(F)F)ccn4)cc3)c12 [Example 119, (S)-4-(8-amino-3-(1-(2-chloropyrimidine-4-carbonyl)pyrrolidin-2-yl)imidazo[1,5-a]pyrazin-1-yl)-N-(4-(trifluoromethyl)pyridin-2-yl)benzamide]	<100

same assay, conditions: 60 min pre-incubation, 5 μM ATP, bin bound in μM

Structure (SMILES)	EC50 Btk activity values [nM]
COC/C=C/C(=O)N1CCC[C@H]1c1nc(-c2ccc(C(=O)Nc3cc(F)ccn3)cc2)c2c(N)nccn12 [Example 53, (S,E)-4-(8-amino-3-(1-(4-methoxybut-2-enoyl)pyrrolidin-2-yl)imidazo[1,5-a]pyrazin-1-yl)-N-(4-fluoropyridin-2-yl)benzamide]	<1000
COC/C=C/C(=O)N1CCCC[C@H]1c1nc(-c2ccc(C(=O)Nc3ncccn3)cc2)c2c(N)nccn12 [Example 55, (S,E)-4-(8-amino-3-(1-(4-methoxybut-2-enoyl)piperidin-2-yl)imidazo[1,5-a]pyrazin-1-yl)-N-(pyrimidin-2-yl)benzamide]	<1000
COC/C=C/C(=O)N1CCCC[C@H]1c1nc(-c2ccc(C(=O)Nc3ccon3)cc2)c2c(N)nccn12 [Example 54, (S,E)-4-(8-amino-3-(1-(4-methoxybut-2-enoyl)piperidin-2-yl)imidazo[1,5-a]pyrazin-1-yl)-N-(isoxazol-3-yl)benzamide]	<1000
C=C(C(=O)N1CCC[C@H]1c1nc(-c2ccc(C(=O)Nc3ccccn3)cc2)c2c(N)nccn12)C(F)(F)F [Example 92, (S)-4-(8-amino-3-(1-(2-(trifluoromethyl)acryloyl)pyrrolidin-2-yl)imidazo[1,5-a]pyrazin-1-yl)-N-(pyridin-2-yl)benzamide]	<1000
COC/C=C/C(=O)N1CCCC[C@H]1c1nc(-c2ccc(C(=O)Nc3ccccn3)cc2C)c2c(N)nccn12 [Example 85, 4-(8-amino-3-((S)-1-((E)-4-methoxybut-2-enoyl)piperidin-2-yl)imidazo[1,5-a]pyrazin-1-yl)-3-methyl-N-(pyridin-2-yl)benzamide]	<1000
CCCc1ccnc(NC(=O)c2ccc(-c3nc([C@@H]4CCCN4C(=O)/C=C/COC)n4ccnc(N)c34)c(C)c2)c1 [Example 87, 4-(8-amino-3-((S)-1-((E)-4-methoxybut-2-enoyl)pyrrolidin-2-yl)imidazo[1,5-a]pyrazin-1-yl)-3-methyl-N-(4-propylpyridin-2-yl)benzamide]	<1000
Nc1nccn2c([C@@H]3CCCCN3C(=O)c3ccnc(Cl)n3)nc(-c3ccc(C(=O)Nc4cccnn4)cc3)c12 [Example 74, (S)-4-(8-amino-3-(1-(2-chloropyrimidine-4-carbonyl)piperidin-2-yl)imidazo[1,5-a]pyrazin-1-yl)-N-(pyridazin-3-yl)benzamide]	<1000
COC/C=C/C(=O)N1CCC[C@H]1c1nc(-c2ccc(C(=O)Nc3ccccn3)c(F)c2)c2c(N)nccn12 [Example 52]	<1000
